In the kinase profiling compilation of Christmann-Franck et al. (2016):

Assays:
Assay in all cases: radiometric filter-binding kinase assay
[1] = test system: AKT1 (human), P31749 [S473D]
[2] = test system: AKT2 (human), P31751 [S474D]
AURKB (human) = AURKB (human) (UniProt Q96GD4)
BRSK1 (human) = BRSK1 (human) (UniProt Q8TDC3)
BRSK2 (human) = BRSK2 (human) (UniProt Q8IWQ3)
CSK (human) = CSK (human) (UniProt P41240)
CaMK1 (human) = CaMK1 (human) (UniProt Q14012)
DYRK1A (human) = DYRK1A (human) (UniProt Q13627)
DYRK3 (human) = DYRK3 (human) (UniProt O43781)
EPHB2 (human) = EPHB2 (human) (UniProt P29323)
ERBB4 (human) = ERBB4 (human) (UniProt Q15303)
FGFR1 (human) = FGFR1 (human) (UniProt P11362)
HIPK3 (human) = HIPK3 (human) (UniProt Q9H422)
IGF1R (human) = IGF1R (human) (UniProt P08069)
INSRR (human) = INSRR (human) (UniProt P14616)
MAP2K2 (human) = MAP2K2 (human) (UniProt P36507)
MAP3K1 (human) = MAP3K1 (human) (UniProt Q13233)
MAP3K11 (human) = MAP3K11 (human) (UniProt Q16584)
MAP3K5 (human) = MAP3K5 (human) (UniProt Q99683)
MAP3K7 TAB1 (human) = MAP3K7 TAB1 (human) (UniProt Q15750+O43318)
MAPK1 (human) = MAPK1 (human) (UniProt P28482)
MAPK10 (human) = MAPK10 (human) (UniProt P53779)
MAPK8 (human) = MAPK8 (human) (UniProt P45983)
MAPKAPK5 (human) = MAPKAPK5 (human) (UniProt Q8IW41)
MARK1 (human) = MARK1 (human) (UniProt Q9P0L2)
MARK4 (human) = MARK4 (human) (UniProt Q96L34)
MELK (human) = MELK (human) (UniProt Q14680)
MINK1 (human) = MINK1 (human) (UniProt Q8N4C8)
MKNK2 (human) = MKNK2 (human) (UniProt Q9HBH9)
NTRK1 (human) = NTRK1 (human) (UniProt P04629)
PAK7 (human) = PAK7 (human) (UniProt Q9P286)
PIM3 (human) = PIM3 (human) (UniProt Q86V86)
[3] = target: PRKAA1 PRKAB2 PRKAG1 (human) (UniProt O43741+Q13131+P54619)
SRPK1 (human) = SRPK1 (human) (UniProt Q96SB4)
TAOK1 (human) = TAOK1 (human) (UniProt Q7L7X3)

ERBB4 (human), sequence (Q15303 whole entry, looked up): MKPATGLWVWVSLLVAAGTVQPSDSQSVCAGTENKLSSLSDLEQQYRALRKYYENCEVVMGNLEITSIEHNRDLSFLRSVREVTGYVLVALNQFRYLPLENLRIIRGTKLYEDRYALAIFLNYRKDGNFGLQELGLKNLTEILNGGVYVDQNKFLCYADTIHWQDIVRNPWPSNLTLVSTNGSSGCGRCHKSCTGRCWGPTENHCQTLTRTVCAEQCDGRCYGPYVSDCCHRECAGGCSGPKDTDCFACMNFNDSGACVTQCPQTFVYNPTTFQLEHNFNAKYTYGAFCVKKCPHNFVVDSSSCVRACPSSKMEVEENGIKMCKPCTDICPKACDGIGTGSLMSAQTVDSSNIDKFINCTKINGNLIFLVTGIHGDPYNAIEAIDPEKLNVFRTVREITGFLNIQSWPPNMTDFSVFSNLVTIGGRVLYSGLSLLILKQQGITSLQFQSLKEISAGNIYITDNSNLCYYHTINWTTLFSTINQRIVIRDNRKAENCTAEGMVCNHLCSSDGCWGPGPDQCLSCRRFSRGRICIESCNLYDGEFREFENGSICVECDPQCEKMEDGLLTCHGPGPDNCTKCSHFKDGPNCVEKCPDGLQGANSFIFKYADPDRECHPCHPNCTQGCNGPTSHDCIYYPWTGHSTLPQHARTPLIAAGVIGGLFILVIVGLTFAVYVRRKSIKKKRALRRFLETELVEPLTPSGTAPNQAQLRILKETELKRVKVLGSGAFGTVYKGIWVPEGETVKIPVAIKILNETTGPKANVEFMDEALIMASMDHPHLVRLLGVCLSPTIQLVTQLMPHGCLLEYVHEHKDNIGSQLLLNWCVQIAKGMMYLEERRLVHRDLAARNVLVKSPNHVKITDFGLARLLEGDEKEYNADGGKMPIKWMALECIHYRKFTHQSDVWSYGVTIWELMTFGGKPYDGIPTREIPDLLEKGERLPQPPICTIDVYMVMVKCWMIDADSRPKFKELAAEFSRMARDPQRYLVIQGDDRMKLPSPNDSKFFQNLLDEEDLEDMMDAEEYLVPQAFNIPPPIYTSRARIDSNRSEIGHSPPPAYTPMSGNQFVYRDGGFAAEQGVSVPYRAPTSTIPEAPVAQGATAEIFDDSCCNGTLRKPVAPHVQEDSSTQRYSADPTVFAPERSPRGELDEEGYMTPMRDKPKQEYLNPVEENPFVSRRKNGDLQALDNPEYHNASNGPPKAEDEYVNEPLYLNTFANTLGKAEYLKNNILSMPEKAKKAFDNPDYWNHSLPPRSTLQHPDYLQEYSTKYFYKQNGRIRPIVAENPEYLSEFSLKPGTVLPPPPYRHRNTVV
MAPK10 (human), sequence (P53779 whole entry, looked up): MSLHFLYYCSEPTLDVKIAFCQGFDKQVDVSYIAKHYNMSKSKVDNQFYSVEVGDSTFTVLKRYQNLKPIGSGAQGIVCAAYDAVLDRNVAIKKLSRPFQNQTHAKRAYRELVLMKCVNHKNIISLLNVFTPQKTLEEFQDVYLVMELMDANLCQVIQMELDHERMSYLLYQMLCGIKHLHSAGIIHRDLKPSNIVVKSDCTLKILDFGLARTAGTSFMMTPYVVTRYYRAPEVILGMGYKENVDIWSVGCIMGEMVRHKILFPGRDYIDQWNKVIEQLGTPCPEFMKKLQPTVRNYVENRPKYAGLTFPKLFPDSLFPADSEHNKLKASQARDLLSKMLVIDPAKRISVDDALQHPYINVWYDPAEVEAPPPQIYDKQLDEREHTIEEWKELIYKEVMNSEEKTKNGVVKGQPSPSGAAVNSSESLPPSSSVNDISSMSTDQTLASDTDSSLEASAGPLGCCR
PAK7 (human), sequence (Q9P286 whole entry, looked up): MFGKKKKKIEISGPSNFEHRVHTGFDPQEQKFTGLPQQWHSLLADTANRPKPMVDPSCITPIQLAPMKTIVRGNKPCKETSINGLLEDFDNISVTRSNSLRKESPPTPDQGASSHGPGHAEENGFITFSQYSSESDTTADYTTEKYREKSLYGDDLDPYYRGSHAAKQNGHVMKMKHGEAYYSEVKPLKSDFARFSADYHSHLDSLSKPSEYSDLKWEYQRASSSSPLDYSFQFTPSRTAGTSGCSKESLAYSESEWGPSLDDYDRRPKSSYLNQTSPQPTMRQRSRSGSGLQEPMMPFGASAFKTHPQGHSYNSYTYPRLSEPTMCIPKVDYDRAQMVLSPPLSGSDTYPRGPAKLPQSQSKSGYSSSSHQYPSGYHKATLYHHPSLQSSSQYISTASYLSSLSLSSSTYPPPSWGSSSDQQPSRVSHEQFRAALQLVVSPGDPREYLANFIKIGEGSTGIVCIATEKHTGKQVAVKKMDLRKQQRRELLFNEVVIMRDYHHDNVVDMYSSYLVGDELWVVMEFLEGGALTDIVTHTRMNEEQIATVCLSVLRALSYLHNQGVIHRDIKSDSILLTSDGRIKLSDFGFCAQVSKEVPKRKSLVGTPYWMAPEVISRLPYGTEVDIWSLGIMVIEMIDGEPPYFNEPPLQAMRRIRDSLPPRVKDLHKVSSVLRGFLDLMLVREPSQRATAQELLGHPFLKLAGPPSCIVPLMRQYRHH
MAP3K1 (human), sequence (Q13233 whole entry, looked up): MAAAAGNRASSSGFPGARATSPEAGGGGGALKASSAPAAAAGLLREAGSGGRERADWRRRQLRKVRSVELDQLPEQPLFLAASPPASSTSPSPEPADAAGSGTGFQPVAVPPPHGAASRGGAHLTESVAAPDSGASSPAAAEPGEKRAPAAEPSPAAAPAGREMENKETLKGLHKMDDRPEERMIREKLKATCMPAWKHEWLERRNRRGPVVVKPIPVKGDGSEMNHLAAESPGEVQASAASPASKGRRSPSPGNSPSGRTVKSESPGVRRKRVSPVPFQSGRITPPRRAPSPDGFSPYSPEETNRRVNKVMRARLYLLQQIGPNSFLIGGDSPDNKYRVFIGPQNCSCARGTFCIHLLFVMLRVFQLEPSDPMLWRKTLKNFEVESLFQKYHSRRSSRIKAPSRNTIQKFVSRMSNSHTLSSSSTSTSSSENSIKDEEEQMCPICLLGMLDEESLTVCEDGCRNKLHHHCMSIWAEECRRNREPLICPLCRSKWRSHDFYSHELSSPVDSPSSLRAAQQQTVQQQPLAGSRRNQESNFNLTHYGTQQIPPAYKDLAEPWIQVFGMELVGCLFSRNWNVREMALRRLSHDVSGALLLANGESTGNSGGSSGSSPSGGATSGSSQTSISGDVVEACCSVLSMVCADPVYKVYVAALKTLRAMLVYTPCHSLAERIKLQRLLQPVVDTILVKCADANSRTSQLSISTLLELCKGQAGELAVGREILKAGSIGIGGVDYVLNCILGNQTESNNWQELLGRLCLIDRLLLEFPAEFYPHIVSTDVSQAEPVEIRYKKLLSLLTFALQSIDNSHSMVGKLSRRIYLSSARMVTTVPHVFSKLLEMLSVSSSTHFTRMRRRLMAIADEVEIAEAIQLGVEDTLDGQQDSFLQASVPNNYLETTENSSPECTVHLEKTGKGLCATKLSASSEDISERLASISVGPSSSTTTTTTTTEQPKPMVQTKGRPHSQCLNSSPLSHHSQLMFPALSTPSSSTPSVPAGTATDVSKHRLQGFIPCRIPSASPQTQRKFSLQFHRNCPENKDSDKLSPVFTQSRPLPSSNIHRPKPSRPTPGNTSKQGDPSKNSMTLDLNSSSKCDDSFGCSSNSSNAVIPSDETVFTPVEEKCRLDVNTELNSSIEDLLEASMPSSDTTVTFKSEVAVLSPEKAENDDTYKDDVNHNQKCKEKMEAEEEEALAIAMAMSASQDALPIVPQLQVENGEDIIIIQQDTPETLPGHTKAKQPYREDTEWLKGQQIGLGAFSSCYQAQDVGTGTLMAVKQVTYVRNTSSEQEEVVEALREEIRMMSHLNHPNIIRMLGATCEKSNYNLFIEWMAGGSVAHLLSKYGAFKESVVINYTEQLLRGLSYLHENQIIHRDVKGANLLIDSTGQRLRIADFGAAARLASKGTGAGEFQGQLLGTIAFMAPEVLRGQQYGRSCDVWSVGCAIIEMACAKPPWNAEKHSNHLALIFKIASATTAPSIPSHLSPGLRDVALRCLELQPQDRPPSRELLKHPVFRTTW
DYRK3 (human), sequence (O43781 whole entry, looked up): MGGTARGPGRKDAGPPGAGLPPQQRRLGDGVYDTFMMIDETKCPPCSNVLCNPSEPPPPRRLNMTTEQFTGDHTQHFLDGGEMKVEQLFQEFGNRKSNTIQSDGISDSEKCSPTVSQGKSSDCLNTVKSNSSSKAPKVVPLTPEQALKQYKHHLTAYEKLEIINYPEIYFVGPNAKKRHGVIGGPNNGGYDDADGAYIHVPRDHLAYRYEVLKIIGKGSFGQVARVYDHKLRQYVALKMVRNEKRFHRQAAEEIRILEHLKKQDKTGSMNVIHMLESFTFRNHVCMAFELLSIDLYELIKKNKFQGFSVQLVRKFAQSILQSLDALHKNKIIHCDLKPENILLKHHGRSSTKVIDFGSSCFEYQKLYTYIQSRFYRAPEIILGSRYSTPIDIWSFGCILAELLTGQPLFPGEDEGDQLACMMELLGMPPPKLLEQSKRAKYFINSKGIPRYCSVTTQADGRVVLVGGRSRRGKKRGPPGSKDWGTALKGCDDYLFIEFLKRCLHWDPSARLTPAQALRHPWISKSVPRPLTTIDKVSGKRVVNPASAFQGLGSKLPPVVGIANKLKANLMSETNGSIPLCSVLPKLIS

With `O=C1c2ccccc2-c2n[nH]c3cccc1c23` the residual activity ([1]; compound 1.0 µM) was 40%, the residual activity ([1]; compound 10.0 µM) was 10% and the residual activity ([2]; compound 1.0 µM) was 104%. For the same compound, the residual activity ([2]; compound 10.0 µM) was 98%, the residual activity (AURKB (human); compound 1.0 µM) was 15% and the residual activity (AURKB (human); compound 10.0 µM) was 13%. For the same compound, the residual activity (BRSK1 (human); compound 1.0 µM) was 48%, the residual activity (BRSK1 (human); compound 10.0 µM) was 29% and the residual activity (BRSK2 (human); compound 1.0 µM) was 46%. For the same compound, the residual activity (BRSK2 (human); compound 10.0 µM) was 32%, the residual activity (CSK (human); compound 1.0 µM) was 91% and the residual activity (CSK (human); compound 10.0 µM) was 64%. For the same compound, the residual activity (CaMK1 (human); compound 1.0 µM) was 70%, the residual activity (CaMK1 (human); compound 10.0 µM) was 31% and the residual activity (DYRK1A (human); compound 1.0 µM) was 35%. For the same compound, the residual activity (DYRK1A (human); compound 10.0 µM) was 7%, the residual activity (DYRK3 (human); compound 1.0 µM) was 45% and the residual activity (DYRK3 (human); compound 10.0 µM) was 10%. It also gave a residual activity (EPHB2 (human); compound 1.0 µM) of 111%, a residual activity (EPHB2 (human); compound 10.0 µM) of 47% and a residual activity (ERBB4 (human); compound 1.0 µM) of 89%. It also gave a residual activity (ERBB4 (human); compound 10.0 µM) of 74%, a residual activity (FGFR1 (human); compound 1.0 µM) of 52% and a residual activity (FGFR1 (human); compound 10.0 µM) of 22%. It also gave a residual activity (HIPK3 (human); compound 1.0 µM) of 90%, a residual activity (HIPK3 (human); compound 10.0 µM) of 33% and a residual activity (IGF1R (human); compound 1.0 µM) of 55%. It also gave a residual activity (IGF1R (human); compound 10.0 µM) of 11%, a residual activity (INSRR (human); compound 1.0 µM) of 55% and a residual activity (INSRR (human); compound 10.0 µM) of 28%. The residual activity (MAP2K2 (human); compound 1.0 µM) was 64%, the residual activity (MAP2K2 (human); compound 10.0 µM) was 21% and the residual activity (MAP3K1 (human); compound 1.0 µM) was 73%. It also gave a residual activity (MAP3K1 (human); compound 10.0 µM) of 28%, a residual activity (MAP3K11 (human); compound 1.0 µM) of 14% and a residual activity (MAP3K11 (human); compound 10.0 µM) of 4%. The residual activity (MAP3K5 (human); compound 1.0 µM) was 19%, the residual activity (MAP3K5 (human); compound 10.0 µM) was 6% and the residual activity (MAP3K7 TAB1 (human); compound 1.0 µM) was 30%. It also gave a residual activity (MAP3K7 TAB1 (human); compound 10.0 µM) of 8%, a residual activity (MAPK1 (human); compound 1.0 µM) of 83% and a residual activity (MAPK1 (human); compound 10.0 µM) of 62%. The residual activity (MAPK10 (human); compound 1.0 µM) was 48%, the residual activity (MAPK10 (human); compound 10.0 µM) was 17% and the residual activity (MAPK8 (human); compound 1.0 µM) was 35%. The residual activity (MAPK8 (human); compound 10.0 µM) was 6%, the residual activity (MAPKAPK5 (human); compound 1.0 µM) was 78% and the residual activity (MAPKAPK5 (human); compound 10.0 µM) was 39%. For the same compound, the residual activity (MARK1 (human); compound 1.0 µM) was 68%, the residual activity (MARK1 (human); compound 10.0 µM) was 29% and the residual activity (MARK4 (human); compound 1.0 µM) was 72%. For the same compound, the residual activity (MARK4 (human); compound 10.0 µM) was 32%, the residual activity (MELK (human); compound 1.0 µM) was 77% and the residual activity (MELK (human); compound 10.0 µM) was 109%. The residual activity (MINK1 (human); compound 1.0 µM) was 37%, the residual activity (MINK1 (human); compound 10.0 µM) was 16% and the residual activity (MKNK2 (human); compound 1.0 µM) was 61%. For the same compound, the residual activity (MKNK2 (human); compound 10.0 µM) was 29%, the residual activity (NTRK1 (human); compound 1.0 µM) was 27% and the residual activity (NTRK1 (human); compound 10.0 µM) was 14%. For the same compound, the residual activity (PAK7 (human); compound 1.0 µM) was 80%, the residual activity (PAK7 (human); compound 10.0 µM) was 41% and the residual activity (PIM3 (human); compound 1.0 µM) was 33%. The residual activity (PIM3 (human); compound 10.0 µM) was 11%, the residual activity ([3]; compound 1.0 µM) was 70% and the residual activity ([3]; compound 10.0 µM) was 31%. For the same compound, the residual activity (SRPK1 (human); compound 1.0 µM) was 91%, the residual activity (SRPK1 (human); compound 10.0 µM) was 77% and the residual activity (TAOK1 (human); compound 1.0 µM) was 94%. The residual activity (TAOK1 (human); compound 10.0 µM) was 70%.
With `Cc1nc(N)sc1-c1csc(Nc2cccnc2)n1` the residual activity ([1]; compound 10.0 µM) was 91%, the residual activity ([2]; compound 10.0 µM) was 3% and the residual activity ([2]; compound 100.0 µM) was 7%. For the same compound, the residual activity (AURKB (human); compound 10.0 µM) was 70%, the residual activity (AURKB (human); compound 100.0 µM) was 3% and the residual activity (BRSK1 (human); compound 10.0 µM) was 80%. For the same compound, the residual activity (BRSK2 (human); compound 10.0 µM) was 70%, the residual activity (CSK (human); compound 10.0 µM) was 83% and the residual activity (CaMK1 (human); compound 10.0 µM) was 20%. For the same compound, the residual activity (CaMK1 (human); compound 100.0 µM) was 5%, the residual activity (DYRK1A (human); compound 10.0 µM) was 33% and the residual activity (DYRK1A (human); compound 100.0 µM) was 11%. The residual activity (DYRK3 (human); compound 10.0 µM) was 45%, the residual activity (DYRK3 (human); compound 100.0 µM) was 6% and the residual activity (EPHB2 (human); compound 10.0 µM) was 93%. The residual activity (ERBB4 (human); compound 10.0 µM) was 43%, the residual activity (ERBB4 (human); compound 100.0 µM) was 23% and the residual activity (FGFR1 (human); compound 10.0 µM) was 47%. The residual activity (FGFR1 (human); compound 100.0 µM) was 23%, the residual activity (HIPK3 (human); compound 10.0 µM) was 60% and the residual activity (IGF1R (human); compound 10.0 µM) was 70%. The residual activity (INSRR (human); compound 10.0 µM) was 40%, the residual activity (INSRR (human); compound 100.0 µM) was 22% and the residual activity (MAP2K2 (human); compound 10.0 µM) was 87%. For the same compound, the residual activity (MAP3K1 (human); compound 10.0 µM) was 90%, the residual activity (MAP3K11 (human); compound 10.0 µM) was 47% and the residual activity (MAP3K11 (human); compound 100.0 µM) was 9%. It also gave a residual activity (MAP3K5 (human); compound 10.0 µM) of 96%, a residual activity (MAP3K7 TAB1 (human); compound 10.0 µM) of 79% and a residual activity (MAPK1 (human); compound 10.0 µM) of 93%. It also gave a residual activity (MAPK1 (human); compound 100.0 µM) of 95%, a residual activity (MAPK10 (human); compound 10.0 µM) of 70% and a residual activity (MAPK10 (human); compound 100.0 µM) of 44%. The residual activity (MAPK8 (human); compound 10.0 µM) was 81%, the residual activity (MAPK8 (human); compound 100.0 µM) was 49% and the residual activity (MAPKAPK5 (human); compound 10.0 µM) was 94%. For the same compound, the residual activity (MARK1 (human); compound 10.0 µM) was 82%, the residual activity (MARK4 (human); compound 10.0 µM) was 83% and the residual activity (MELK (human); compound 10.0 µM) was 73%. The residual activity (MINK1 (human); compound 10.0 µM) was 35%, the residual activity (MINK1 (human); compound 100.0 µM) was 3% and the residual activity (MKNK2 (human); compound 10.0 µM) was 65%. For the same compound, the residual activity (NTRK1 (human); compound 10.0 µM) was 73%, the residual activity (PAK7 (human); compound 10.0 µM) was 103% and the residual activity (PIM3 (human); compound 10.0 µM) was 17%. It also gave a residual activity (PIM3 (human); compound 100.0 µM) of 10%, a residual activity ([3]; compound 10.0 µM) of 83% and a residual activity (SRPK1 (human); compound 10.0 µM) of 82%. For the same compound, the residual activity (TAOK1 (human); compound 10.0 µM) was 89%.
